# Activity calls are given as the source filed them. The rule behind the calls is not given here.
# Assays:
# [1] = Microsomal stability in CD-1 mouse liver microsome measured assessed as intrinsic clearance upto 30 mins by HPLC-MS/MS analysis; type: ADME; settings: microsomes, 0.5 h
# [2] = Cytotoxicity against rat H9c2 cells assessed as reduction in cell viability measured for 72 hrs; type: toxicity, cell-based
# Trypanosoma cruzi [3] = test: Antitrypanosomal activity against Trypanosoma cruzi Tulahuen trypomastigotes assessed as reduction in parasite growth incubated for 4 hrs by cell counter analysis; type: functional, organism-based
# [4] = Microsomal stability in CD-1 mouse liver microsome measured assessed as half life upto 30 mins by HPLC-MS/MS analysis; type: ADME; settings: liver microsomes
# [5] = Microsomal stability in human liver microsome measured assessed as intrinsic clearance upto 30 mins by HPLC-MS/MS analysis; type: ADME; settings: microsomes, 0.5 h
# [6] = Microsomal stability in human liver microsome measured assessed as half life upto 30 mins by HPLC-MS/MS analysis; type: ADME; settings: liver microsomes
# [7] = Cmax in BALB/c mouse at 50 mg/kg, po measured at 15 to 1440 mins by LC-MS/MS analysis; type: ADME, organism-based; parameters: time lower 15 min, dose 50 mg/kg, time upper 1440 min, route po; settings: in vivo
# [8] = Tmax in BALB/c mouse at 50 mg/kg, po measured at 15 to 1440 mins by LC-MS/MS analysis; type: ADME, organism-based; settings: in vivo, time 15-1440 min
# [9] = AUC (0 to t) in BALB/c mouse at 50 mg/kg, po measured at 15 to 1440 mins by LC-MS/MS analysis; type: ADME, organism-based; parameters: dose 50 mg/kg, time upper 1440 min, time lower 15 min, route po; settings: in vivo
# Trypanosoma cruzi [10] = test: Antitrypanosomal activity against Trypanosoma cruzi Tulahuen strain trypomastigotes infected in rat H9c2 cells; type: functional, organism-based
# Trypanosoma cruzi [11] = test: Antitrypanosomal activity against Trypanosoma cruzi Tulahuen amastigotes infected in monkey LLC-MK2 cells assessed as reduction in amastigotes per 100 cells by cell counting analysis; type: functional, organism-based
# [12] = Cytotoxicity against monkey LLC-MK2 cells assessed as reduction in cell viability; type: toxicity, cell-based; settings: rhesus monkey (Macaca mulatta)
# [13] = target: Sterol 14-alpha demethylase (Trypanosoma cruzi (strain CL Brener), UniProt Q7Z1V1); test: Inhibition of Trypanosoma cruzi CYP51
# Trypanosoma cruzi [14] = test: Antitrypanosomal activity against Trypanosoma cruzi Tulahuen amastigotes infected in monkey LLC-MK2 cells assessed reduction in amastigotes per 100 cells by measuring rate of kill time by counting analysis; type: functional
# [15] = Cytotoxicity against mouse NIH3T3 cells assessed as reduction in cell viability; type: toxicity, cell-based
# HepG2 = test: Cytotoxicity against human HepG2 cells assessed as reduction in cell viability; type: functional, cell-based
# [16] = Equilibrium solubility of the compound in FaSSIF at pH 6.5; type: physicochemical
# [17] = target: Voltage-gated inwardly rectifying potassium channel KCNH2 (Homo sapiens, UniProt Q12809); test: Inhibition of hERG cardiac ion channel; type: toxicity
# [18] = AUC in BALB/c mouse at 50 mg/kg, po measured at 15 to 1440 mins by LC-MS/MS analysis; type: ADME, organism-based; parameters: time upper 1440 min, dose 50 mg/kg, time lower 15 min, route po; settings: in vivo
# [19] = Toxicity in BALB/c mouse assessed as reduction in body weight loss at 50 mg/kg, po bid; type: organism-based; parameters: scale not given: the % may be the effect or the level left; settings: in vivo
# Trypanosoma cruzi [20] = test: In vivo antitrypanosomal activity against Trypanosoma cruzi infected in BALB/c mouse model assessed as reduction in parasitemia at 30 mg/kg, po preincubated for 4 days post infection followed by compound treatment and measured after 5 to 10 days; type: functional; parameters: scale not given: the % may be the effect or the level left; settings: time 5-10 day
# Sequence of Sterol 14-alpha demethylase (Q7Z1V1 whole entry): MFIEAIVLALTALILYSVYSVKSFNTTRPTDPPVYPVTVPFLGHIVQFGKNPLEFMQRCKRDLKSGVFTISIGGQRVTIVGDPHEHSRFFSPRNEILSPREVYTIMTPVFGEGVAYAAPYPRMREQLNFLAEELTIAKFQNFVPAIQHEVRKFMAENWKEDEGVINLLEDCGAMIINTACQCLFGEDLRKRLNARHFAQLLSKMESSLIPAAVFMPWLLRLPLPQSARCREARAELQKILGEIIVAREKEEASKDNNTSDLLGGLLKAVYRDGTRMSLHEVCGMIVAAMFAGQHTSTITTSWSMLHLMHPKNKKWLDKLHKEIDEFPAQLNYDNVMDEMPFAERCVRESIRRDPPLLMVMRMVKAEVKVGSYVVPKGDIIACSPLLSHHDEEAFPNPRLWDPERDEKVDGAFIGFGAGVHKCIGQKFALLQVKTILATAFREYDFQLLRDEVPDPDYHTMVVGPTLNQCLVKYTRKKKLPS
# Sequence of Voltage-gated inwardly rectifying potassium channel KCNH2 (Q12809 whole entry): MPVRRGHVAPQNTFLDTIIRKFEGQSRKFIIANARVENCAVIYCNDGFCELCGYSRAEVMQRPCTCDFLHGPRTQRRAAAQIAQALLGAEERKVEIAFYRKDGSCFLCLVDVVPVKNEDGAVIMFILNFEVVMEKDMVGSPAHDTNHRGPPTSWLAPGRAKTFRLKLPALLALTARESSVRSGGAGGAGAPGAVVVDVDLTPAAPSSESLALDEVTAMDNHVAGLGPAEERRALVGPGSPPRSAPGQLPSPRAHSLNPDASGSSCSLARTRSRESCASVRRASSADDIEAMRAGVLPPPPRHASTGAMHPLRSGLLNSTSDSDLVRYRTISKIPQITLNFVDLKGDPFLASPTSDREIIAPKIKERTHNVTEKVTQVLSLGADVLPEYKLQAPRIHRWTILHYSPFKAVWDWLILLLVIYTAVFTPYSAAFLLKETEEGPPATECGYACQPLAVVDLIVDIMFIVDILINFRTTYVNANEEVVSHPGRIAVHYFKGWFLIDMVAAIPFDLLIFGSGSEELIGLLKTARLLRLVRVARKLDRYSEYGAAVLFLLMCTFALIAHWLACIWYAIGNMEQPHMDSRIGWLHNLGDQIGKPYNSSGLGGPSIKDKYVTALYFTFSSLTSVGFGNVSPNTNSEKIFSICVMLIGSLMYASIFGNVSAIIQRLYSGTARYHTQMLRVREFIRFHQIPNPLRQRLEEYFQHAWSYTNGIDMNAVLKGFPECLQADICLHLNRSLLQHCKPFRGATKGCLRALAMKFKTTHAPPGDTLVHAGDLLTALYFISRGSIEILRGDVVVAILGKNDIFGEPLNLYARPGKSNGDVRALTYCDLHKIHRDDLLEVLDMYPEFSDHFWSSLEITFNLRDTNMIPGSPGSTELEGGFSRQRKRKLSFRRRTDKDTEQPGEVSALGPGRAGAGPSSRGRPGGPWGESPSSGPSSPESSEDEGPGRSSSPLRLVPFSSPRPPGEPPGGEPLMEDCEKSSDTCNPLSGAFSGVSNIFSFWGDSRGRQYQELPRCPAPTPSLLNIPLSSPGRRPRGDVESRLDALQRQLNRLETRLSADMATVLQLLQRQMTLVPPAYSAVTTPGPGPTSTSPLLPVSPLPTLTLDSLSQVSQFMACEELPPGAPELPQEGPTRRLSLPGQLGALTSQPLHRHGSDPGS
SMILES,IC50 at 72 h [2] [µM],IC50 (Trypanosoma cruzi [3]) [µM],also measured
O=C1CCCN1c1ccc(S(=O)(=O)c2ccccc2CO)c(C(F)(F)F)c1,> 50.1,0.251,CLH [1]: 20 mL/min/g; half-life [4]: 4.39 min; CLH [5]: 12.5 mL/min/g; half-life [6]: 3.32 min; Cmax [7]: 175 ng/mL; Tmax [8]: 30 min; AUC(0-t) [9]: 208 ng·h/mL
O=C1CCCN1c1ccc(Sc2ncccc2CO)c(C(F)(F)F)c1,> 50.1,20,–
N#Cc1cc(N2CCCC2=O)ccc1Sc1ccccc1CO,0.447,–,CLH [1]: 1.36 mL/min/g; IC50 (Trypanosoma cruzi [10]): 0.24 µM; IC50 (Trypanosoma cruzi [11]): 0.251 µM; IC50 [12]: 0.447 µM; Activity (Trypanosoma cruzi [3]): inactive; IC50 [13]: > 10 µM; Time (Trypanosoma cruzi [14]): >24 h; IC50 [15]: > 50.1 µM; IC50 (HepG2): > 100 µM; solubility thermodynamic [16]: 56 µg/mL; half-life [4]: 54 min; CLH [5]: 4.62 mL/min/g; half-life [6]: 15 min; IC50 [17]: > 50.1 µM
O=C1CCCN1c1ccc(Sc2ccccc2CO)cc1,> 50.1,> 50.1,–
O=C1CCCN1c1ccc(Sc2ccccc2O)c(C(F)(F)F)c1,15.8,2,–
COC(=O)c1cc(N2CCCC2=O)ccc1Sc1ccccc1CO,> 50.1,31.6,–
COCc1ccccc1Sc1ccc(N2CCCC2=O)cc1C#N,31.6,6.31,–
COc1cccc(CO)c1Sc1ccc(N2CCCC2=O)cc1C(F)(F)F,> 50.1,20,–
Cc1cc(N2CCCC2=O)ccc1Sc1ccccc1CO,> 50.1,6.31,–
O=C1CCCN1c1ccc(Sc2ccc(Cl)cc2CO)c(C(F)(F)F)c1,31.6,0.158,–
O=C1CCCN1c1ccc(Sc2ccccc2CO)cc1C(F)(F)F,> 50.1,7.94,–
O=C(O)c1cc(N2CCCC2=O)ccc1Sc1ccccc1CO,> 50.1,> 50.1,–
N#Cc1cc(N2CCCC2=O)ccc1Oc1ccccc1CO,> 50.1,2.51,–
O=C1CCCN1c1ccc(Sc2cc(Cl)ccc2CO)c(C(F)(F)F)c1,39.8,6.31,–
O=C1CCCN1c1ccc(Sc2ccccc2CO)c(F)c1,> 50.1,5.01,–
O=C1CCCN1c1ccc(Sc2cccc(Cl)c2CO)c(C(F)(F)F)c1,> 50.1,0.316,–
O=C1CCCN1c1ccc(Sc2cccc(F)c2CO)c(C(F)(F)F)c1,> 50.1,0.02,–
O=C1CCCN1c1ccc(Sc2c(Cl)cccc2CO)c(C(F)(F)F)c1,> 50.1,1.26,–

SMILES,IC50 at 72 h [2] [µM],IC50 (Trypanosoma cruzi [3]) [µM],also measured
Cc1ccc(Sc2ccc(N3CCCC3=O)cc2C(F)(F)F)c(CO)c1,> 50.1,6.31,–
O=C1CCCN1c1ccc(Sc2ccccc2CO)c(Cl)c1,> 50.1,0.2,–
Cc1cccc(CO)c1Sc1ccc(N2CCCC2=O)cc1C(F)(F)F,> 50.1,0.794,–
N#Cc1cc(N2CCCC2=O)ccc1Sc1cccc(CO)c1,> 50.1,31.6,–
CN(C)C(=O)c1cc(N2CCCC2=O)ccc1Sc1ccccc1CO,> 50.1,50.1,–
CCc1ccccc1Sc1ccc(N2CCCC2=O)cc1C(F)(F)F,15.8,20,–
O=C1CCCN1c1ccc(Sc2ccccc2CO)c(OC(F)(F)F)c1,> 50.1,2.51,–
Cc1cccc(Sc2ccc(N3CCCC3=O)cc2C(F)(F)F)c1CO,> 50.1,0.316,–
O=C1CCCN1c1ccc(Sc2ccccc2CO)nc1,> 50.1,12.6,–
N#Cc1cc(N2CCCC2=O)ccc1Sc1ccccc1C(=O)O,> 50.1,0.794,–
O=C1CCCN1c1ccc(Sc2ccc(F)cc2CO)c(C(F)(F)F)c1,> 50.1,–,–
COc1ccc(CO)c(Sc2ccc(N3CCCC3=O)cc2C(F)(F)F)c1,> 50.1,15.8,–
O=C1CCCN1c1ccc(Sc2cc(F)ccc2CO)c(C(F)(F)F)c1,> 50.1,0.126,–
Cc1ccc(CO)c(Sc2ccc(N3CCCC3=O)cc2C(F)(F)F)c1,> 50.1,15.8,–
O=C1CCCN1c1ccc(Sc2ccccc2CO)c(C(F)(F)F)c1,> 50.1,0.0316,CLH [1]: 31.49 mL/min/g; half-life [4]: 4.78 min; CLH [5]: 11.51 mL/min/g; half-life [6]: 2.11 min; Cmax [7]: 301 ng/mL; Tmax [8]: 30 min; AUC(0-t) [9]: 485 ng·h/mL; AUC [18]: 530 ng·h/mL; Activity [19]: 16%; Activity (Trypanosoma cruzi [20]): 70%
O=C(Cn1ccnc1[N+](=O)[O-])NCc1ccccc1 [BENZNIDAZOLE],31.6,1.26,–
COc1cccc(Sc2ccc(N3CCCC3=O)cc2C(F)(F)F)c1CO,> 50.1,25.1,–
COc1ccc(Sc2ccc(N3CCCC3=O)cc2C(F)(F)F)c(CO)c1,> 50.1,1,–
